Reference: patent US8921414B2, “Spiroketals” (EcoBiotics Ltd, priority 2005, dated 2014)
≈ marks a conversion by molar mass, not a printed value.

Tests used:
[1] = system: normal human fibroblasts (NFF); assay: Additional in vitro activity: cytotoxic activity, NFF; assay type: cell-based; settings: concentration with activity
ovarian C180-13S = assay: Additional in vitro activity: antitumor activity, C180-13S; assay type: cell-based, human; settings: concentration with activity
melanoma MM96L = assay: Additional in vitro activity: antitumor activity, MM96L; assay type: cell-based, human; settings: concentration with activity
K562 leukemia = assay: Cell growth inhibition (Table 22), K562; assay type: cell-based; settings: Homo sapiens, read-out: IC50 (drug dose which inhibits cell growth by 50%) K562
Experimental: (§1) The isolated compounds were tested against a number of human and non-human cancer cell lines. The human tumor cell lines were: MCF-7, MDA-MB-231 and T47D, breast cancer; DU145 and PC3, prostate cancer; CI80-13S, ovarian cancer; MM96L, D04, SkMel5, MM418c5 melanoma; HT29, colon cancer; K562 and HL60, leukemia. Mouse cell lines were the B16 mouse melanoma and LK2 UV-induced squamous cell carcinoma (SCC). Neonatal foreskin fibroblasts (NFF) were used as normal control cells. Cells were cultured at 37° C. in 5% carbon dioxide/air, in RPMI 1640 medium containing 10% fetal calf serum.

DU145 prostate cancer = assay: Cell growth inhibition (Table 22), DU145; assay type: cell-based; settings: Homo sapiens, DU-145; read-out: IC50 (drug dose which inhibits cell growth by 50%) DU145
Experimental: as §1

MM96L melanoma = assay: Cell growth inhibition (Table 22), MM96L; assay type: cell-based; settings: Homo sapiens, read-out: IC50 (drug dose which inhibits cell growth by 50%) MM96L
Experimental: as §1

[2] = system: Neonatal foreskin fibroblasts (NFF); assay: Cell growth inhibition (Table 22), NFF; assay type: cell-based; settings: Homo sapiens, read-out: IC50 (drug dose which inhibits cell growth by 50%) NFF
Experimental: as §1

MCF-7 breast cancer = assay: Cell growth inhibition (Table 22), MCF7; assay type: cell-based; settings: Homo sapiens, read-out: IC50 (drug dose which inhibits cell growth by 50%) MCF7
Experimental: as §1

CI80-13S ovarian cancer = assay: Cell growth inhibition (Table 22), C180-13S; assay type: cell-based; settings: Homo sapiens, read-out: IC50 (drug dose which inhibits cell growth by 50%) C180-13S
Experimental: as §1

tumor cells = assay: Cell arrest, comparison of ethacrynic acid with EBI-23; assay type: cell-based
prostate DU145 = assay: Additional in vitro activity: antitumor activity, DU145; assay type: cell-based, human; settings: concentration with activity
leukemia K562 = assay: Additional in vitro activity: antitumor activity, K562; assay type: cell-based, human; settings: concentration with activity
Drosophila melanogaster = assay: DipteraTOX insecticidal bioassay; design: key: A value of A in DipG, Dip P or Dip H represents very active; a value of P represents active; settings: 250 μg per mL in agar
Experimental: DipteraTOX. DipteraTOX is referred to herein as DipG, DipP and DipH. DipG represents no grazing of larva. DipP represents no pupae formation and Dip H represents no hatching of flies. A value of A in DipG, Dip P or Dip H represents very active and a value of P represents active. In DipteraTox the fly eggs are applied to the surface of an agar matrix containing 250 μg per mL of the test chemical and allowed to hatch, develop and pupate for a period up of two weeks. The assay was monitored at two discrete times to determine the extent of grazing of the agar matrix at Week 1 and the presence of adult flies at Week 2. […] Drosophila melanogaster was utilised for this assay.

[3] = system: NS1 murine myeloma cell line; assay: CyTOX (Cy) cytotoxicity bioassay; assay type: cell-based; settings: weight of chemical in last well with activity; real value may be lower
Source text: CyTOX (alternatively referred to herein as Cy) is a microtitre plate bioassay use to identify potential antitumor actives. CyTOX is a chromogenic bioassay with broad application to a wide range of tumor and non-tumor cell lines. […] CyTOX features a liquid media into which the test compound has been incorporated together with a novel chromogen. As the cells grow and divide the chromogen is metabolised from purple in a single step process to a colourless metabolite. CyTOX is routinely undertaken using NS1 murine myeloma cell line as a guide to mammalian cell toxicity. Briefly, in CyTOX the cells were applied to the media containing the test chemical and allowed to grow for 72 hours. The assay was monitored at 24, 48 and 72 hours and the active wells identified.

breast MCF-7 = assay: Additional in vitro activity: antitumor activity, MCF-7; assay type: cell-based, human; settings: concentration with activity
Bacillus subtilis = assay: ProTOX (Bs) antibacterial bioassay; assay type: cell-based; settings: weight of chemical in last well with activity; real value may be lower
Source text: ProTOX, (alternatively referred to herein as Bs) is an antibacterial bioassay, broadly applicable to most aerobic and anaerobic bacteria. The bioassay features a solid phase agar base into which the test compound has been incorporated together with a chromogen. As the bacteria multiply in the well, the chromogen is metabolised from blue in a two-step process to a colourless compound. Compounds with potent bactericidal activity inhibit bacterial metabolism of the chromogen while bacteriostatic compounds induce limited metabolism as indicated by an intermediate pink colour. ProTOX is broadly applicable to a range of gram-positive and gram-negative bacteria under aerobic and microaerophilic conditions. ProTOX assays were carried out using Bacillus subtilis. Briefly, in ProTOX, the bacteria (24 hour broth) were applied to the surface of an agar matrix containing the test sample and allowed to grow for 48 h. The assay was monitored at 24 and 48 hours and the active wells noted. Known antibiotics yield consistent colour transitions which are concentration and time dependent. These patterns provided an important guide to the early recognition of interesting characteristics.

Giardia spp. = assay: TriTOX (Gi) anti-protozoan bioassay; assay type: cell-based; settings: weight of chemical in last well with activity; real value may be lower
Source text: TriTOX (alternatively referred to herein as Gi) is a microtitre plate based chromogenic bioassay for the screening of anti-protozoan activity of pathogenic, anaerobic/microaerophilic protozoans for example Giardia spp. and Trichomonas spp. The bioassays are run under anaerobic conditions and features species specific chromogens. […] Aliquots of each concentration(s) are applied to the wells of 96-well microtitre plates and diluted with media. […] The lowest concentration at which the compound is active is noted as the minimum inhibitory concentration (MIC). Additionally, microscopic inspection is carried out to identify any patterns of morphological change that may be consistent with a type of toxicity and therefore mode of action. Giardia spp. was utilized for this assay.

melanoma MM418c5 = assay: Additional in vitro activity: antitumor activity, MM418c5; assay type: cell-based, human; settings: concentration with activity

## CCCCCCCCCCCCCC(CC1C=CCC2(CC3OC(=O)C=CC3O2)O1)OC(C)=O (stereo not shown) [EBI-42]
[1]
  cytotoxic activity against normal human fibroblasts (NFF) at: > 10 µg/mL
Ovarian C180-13S
  antitumor activity against ovarian C180-13S at: 10 µg/mL
Melanoma MM96L
  antitumor activity against melanoma MM96L at: 10 µg/mL
K562 leukemia
  IC50: > 10 µg/mL
DU145 prostate cancer
  IC50: > 10 µg/mL
MM96L melanoma
  IC50: 6 µg/mL (≈ 12.6 µM)
[2]
  IC50: > 10 µg/mL
MCF-7 breast cancer
  IC50: 6 µg/mL (≈ 12.6 µM)
CI80-13S ovarian cancer
  IC50: 6 µg/mL (≈ 12.6 µM)

## C=C(CC)C(=O)c1ccc(OCC(=O)O)c(Cl)c1Cl [ethacrynic acid]
Tumor cells
  fold higher concentration than EBI-23 to achieve cell arrest: 10 fold
  selectivity against tumor cells: no selectivity

## CCCCCCCCCCCCCC(CC1CC(O)CC2(CC3OC(=O)C=CC3O2)O1)OC(C)=O (stereo not shown) [EBI-25]
Prostate DU145
  antitumor activity against prostate DU145 at: 30 µg/mL
Leukemia K562
  antitumor activity against leukemia K562 at: 30 µg/mL
[1]
  cytotoxic activity against normal human fibroblasts (NFF) at: 30 µg/mL
Ovarian C180-13S
  antitumor activity against ovarian C180-13S at: 3 µg/mL
Drosophila melanogaster
  DipH (no hatching of flies): P
[3]
  Cy LD99: 1.6 µg/mL
Melanoma MM96L
  antitumor activity against melanoma MM96L at: 10 µg/mL
K562 leukemia
  IC50: 6.1 µg/mL (≈ 12.3 µM)
DU145 prostate cancer
  IC50: 1 µg/mL (≈ 2.02 µM)
Breast MCF-7
  antitumor activity against breast MCF-7 at: 300 µg/mL
MM96L melanoma
  IC50: 1.6 µg/mL (≈ 3.23 µM)
[2]
  IC50: 3 µg/mL (≈ 6.06 µM)
MCF-7 breast cancer
  IC50: 0.34 µg/mL (≈ 0.687 µM)
Bacillus subtilis
  Bs LD99: 25 µg/mL
CI80-13S ovarian cancer
  IC50: 5 µg/mL (≈ 10.1 µM)
Giardia spp.
  Gi LD99: 50 µg/mL
Melanoma MM418c5
  antitumor activity against melanoma MM418c5 at: 10 µg/mL
